# Data published in US6420330B1, “Use of quaternary carboxylic acid alkanolamine ester salts as microbicide agents” (Cognis Deutschland GmbH, priority 1997, dated 2002).
# Assays:
# Test in all cases: DGHM suspension test, microbicidal activity
# Format in all cases: cell-based
# [1] = test system: Candida albicans ATCC 10231
# Protocol: (§1) The microbicidal activity of the quanterary carboxylic acid alkanolamine ester salts used in accordance with the invention was tested against the following selected test germs:
# (§2) The effectiveness of the compound to be tested was determined by the suspension test in accordance with the guidelines of the Deutsche Gesellschaft for Hygiene and Mikrobiologie (DGHM). Test solutions containing quatemary carboxylic acid alkanolamine ester salts in the quantities shown in the Tables of 50, 100, 200, 400 and 800 mg/l were prepared using water with a hardness of 17° dH and optionally isopropanol.
# (§3) At room temperatures, quantities of 0.1 ml test germ suspension were pipetted into test tubes containing 10 ml of the test solutions described above and mixed. After various contact times of 5, 15, 30 and 60 minutes, 1 ml of material was taken from the test tubes by pipette and transferred to 9 ml inactivator solution (inactivators: 3.0% Tween, 0.3% lecithin, 0.1% histidine). After in activation for at least 5 and at most 30 minutes, the living germ count was determined by plating out onto casein peptone-soybean flour peptone (CaSo)-agar plates. Using a spiral plater, the inactivating mixture was directly plated out onto CaSo-agar. The samples were incubated for 24 to 72 hours at 37° C. and macroscopically evaluated for growth. The destruction time or the residual germ count was determined in this way. The germ count of an unchallenged water control is related to the germ count of the inactivated test solution taking the dilution into account. The higher the value, the better the microbicidal effect. The symbol < means that the logarithmic reductuon factor is below the indicated value or, in the case of the symbol >, above the indicated value. The abbreviation CU stands for “concentration used”.
# [2] = test system: Pseudomonas aeruginosa ATCC 15442
# Protocol: as §1, §2, §3
# [3] = test system: Staphylococcus aureus ATCC 6538
# Protocol: as §1, §2, §3
# [4] = CU 50 mg/l, contact time 5 mins.
# [5] = CU 50 mg/l, contact time 15 mins.
# [6] = CU 50 mg/l, contact time 30 mins.
# [7] = CU 50 mg/l, contact time 60 mins.
# [8] = CU 100 mg/l, contact time 5 mins.
# [9] = CU 100 mg/l, contact time 15 mins.
# [10] = CU 100 mg/l, contact time 30 mins.
# [11] = CU 100 mg/l, contact time 60 mins.
# [12] = CU 200 mg/l, contact time 5 mins.
# [13] = CU 200 mg/l, contact time 15 mins.
# [14] = CU 200 mg/l, contact time 30 mins.
# [15] = CU 200 mg/l, contact time 60 mins.
# [16] = CU 400 mg/l, contact time 5 mins.
# [17] = CU 400 mg/l, contact time 15 mins.
# [18] = CU 400 mg/l, contact time 30 mins.
# [19] = CU 400 mg/l, contact time 60 mins.
# [20] = CU 800 mg/l, contact time 5 mins.
# [21] = CU 800 mg/l, contact time 15 mins.
# [22] = CU 800 mg/l, contact time 30 mins.
# [23] = CU 800 mg/l, contact time 60 mins.
molecule,measurement,setting,value
"CCCCCCCCCC(=O)OCC[N+](C)(C)CCOC(=O)CCCCCCCCC.COS(=O)(=O)[O-] [Example 10, dimethyl diethanolammonium dicapric acid ester methosulfate]",logarithmic reduction factor,[1]; [4],2.87
same,logarithmic reduction factor,[1]; [5],>4.84
same,logarithmic reduction factor,[1]; [6],>4.89
same,logarithmic reduction factor,[1]; [7],>4.80
same,logarithmic reduction factor,[1]; [8],4.27
same,logarithmic reduction factor,[1]; [9],>4.84
same,logarithmic reduction factor,[1]; [10],>4.89
same,logarithmic reduction factor,[1]; [11],>4.80
same,logarithmic reduction factor,[2]; [8],3.11
same,logarithmic reduction factor,[2]; [9],3.48
same,logarithmic reduction factor,[2]; [10],3.95
same,logarithmic reduction factor,[2]; [11],4.84
same,logarithmic reduction factor,[2]; [12],3.54
same,logarithmic reduction factor,[2]; [13],4.51
same,logarithmic reduction factor,[2]; [14],5.50
same,logarithmic reduction factor,[2]; [15],5.44
same,logarithmic reduction factor,[2]; [16],4.31
same,logarithmic reduction factor,[2]; [17],5.04
same,logarithmic reduction factor,[2]; [18],5.64
same,logarithmic reduction factor,[2]; [19],>5.79
same,logarithmic reduction factor,[3]; [8],>5.56
same,logarithmic reduction factor,[3]; [9],>5.55
same,logarithmic reduction factor,[3]; [10],>5.72
same,logarithmic reduction factor,[3]; [11],>5.69
same,logarithmic reduction factor,[3]; [12],>5.56
same,logarithmic reduction factor,[3]; [13],>5.55
same,logarithmic reduction factor,[3]; [14],>5.72
same,logarithmic reduction factor,[3]; [15],>5.69
same,logarithmic reduction factor,[3]; [16],>5.56
same,logarithmic reduction factor,[3]; [17],>5.55
same,logarithmic reduction factor,[3]; [18],>5.72
same,logarithmic reduction factor,[3]; [19],>5.69
trimethyl ethanolammonium coconut fatty acid ester methosulfate [Example 4],logarithmic reduction factor,[1]; [4],<0.80
same,logarithmic reduction factor,[1]; [5],<0.79
same,logarithmic reduction factor,[1]; [6],0.91
same,logarithmic reduction factor,[1]; [7],1.40
same,logarithmic reduction factor,[1]; [8],1.19
same,logarithmic reduction factor,[1]; [9],3.01
same,logarithmic reduction factor,[1]; [10],>4.80
same,logarithmic reduction factor,[1]; [11],>5.05
same,logarithmic reduction factor,[1]; [12],3.43
same,logarithmic reduction factor,[1]; [13],>4.79
same,logarithmic reduction factor,[1]; [14],>4.80
same,logarithmic reduction factor,[1]; [15],>5.05
same,logarithmic reduction factor,[1]; [16],>4.80
same,logarithmic reduction factor,[1]; [17],>4.79
same,logarithmic reduction factor,[1]; [18],>4.80
same,logarithmic reduction factor,[1]; [19],>5.05
same,logarithmic reduction factor,[1]; [20],>4.80
same,logarithmic reduction factor,[1]; [21],>4.79
same,logarithmic reduction factor,[1]; [22],>4.80
same,logarithmic reduction factor,[1]; [23],>5.05
same,logarithmic reduction factor,[2]; [4],<1.51
same,logarithmic reduction factor,[2]; [5],<1.66
same,logarithmic reduction factor,[2]; [6],<1.46
same,logarithmic reduction factor,[2]; [7],<1.47
same,logarithmic reduction factor,[2]; [8],<1.51
same,logarithmic reduction factor,[2]; [9],<1.66
same,logarithmic reduction factor,[2]; [10],<1.46
same,logarithmic reduction factor,[2]; [11],<1.47
same,logarithmic reduction factor,[2]; [12],<1.51
same,logarithmic reduction factor,[2]; [13],<1.66
same,logarithmic reduction factor,[2]; [14],<1.46
same,logarithmic reduction factor,[2]; [15],<3.35
same,logarithmic reduction factor,[2]; [16],<1.51
same,logarithmic reduction factor,[2]; [17],3.9
same,logarithmic reduction factor,[2]; [18],>5.66
same,logarithmic reduction factor,[2]; [19],>5.47
same,logarithmic reduction factor,[2]; [20],4.02
same,logarithmic reduction factor,[2]; [21],>5.66
same,logarithmic reduction factor,[2]; [22],>5.66
same,logarithmic reduction factor,[2]; [23],>5.47
same,logarithmic reduction factor,[3]; [4],<1.51
same,logarithmic reduction factor,[3]; [5],<1.36
same,logarithmic reduction factor,[3]; [6],<1.38
same,logarithmic reduction factor,[3]; [7],1.94
same,logarithmic reduction factor,[3]; [8],<1.51
same,logarithmic reduction factor,[3]; [9],1.78
same,logarithmic reduction factor,[3]; [10],3.03
same,logarithmic reduction factor,[3]; [11],4.02
same,logarithmic reduction factor,[3]; [12],<1.51
same,logarithmic reduction factor,[3]; [13],3.4
same,logarithmic reduction factor,[3]; [14],4.38
same,logarithmic reduction factor,[3]; [15],>5.26
same,logarithmic reduction factor,[3]; [16],2.33
same,logarithmic reduction factor,[3]; [17],4.14
same,logarithmic reduction factor,[3]; [18],>5.38
same,logarithmic reduction factor,[3]; [19],>5.26
same,logarithmic reduction factor,[3]; [20],3.12
same,logarithmic reduction factor,[3]; [21],>5.36
same,logarithmic reduction factor,[3]; [22],>5.38
same,logarithmic reduction factor,[3]; [23],>5.26
"CCCCCCCCC(=O)OCC[N+](C)(C)CCOC(=O)CCCCCCCC.COS(=O)(=O)[O-] [Example 3, dimethyl diethanolammonium dipelargonic acid ester methosulfate]",logarithmic reduction factor,[1]; [4],2.86
same,logarithmic reduction factor,[1]; [5],>4.63
same,logarithmic reduction factor,[1]; [6],>4.66
same,logarithmic reduction factor,[1]; [7],>4.67
same,logarithmic reduction factor,[1]; [8],>4.63
same,logarithmic reduction factor,[1]; [9],>4.63
same,logarithmic reduction factor,[1]; [10],>4.66
same,logarithmic reduction factor,[1]; [11],>4.67
same,logarithmic reduction factor,[1]; [12],>4.63
same,logarithmic reduction factor,[1]; [13],>4.63
same,logarithmic reduction factor,[1]; [14],>4.66
same,logarithmic reduction factor,[1]; [15],>4.67
same,logarithmic reduction factor,[1]; [16],>4.63
same,logarithmic reduction factor,[1]; [17],>4.63
same,logarithmic reduction factor,[1]; [18],>4.66
same,logarithmic reduction factor,[1]; [19],>4.67
same,logarithmic reduction factor,[1]; [20],>4.63
same,logarithmic reduction factor,[1]; [21],>4.63
same,logarithmic reduction factor,[1]; [22],>4.66
same,logarithmic reduction factor,[1]; [23],>4.67
same,logarithmic reduction factor,[2]; [4],<1.59
same,logarithmic reduction factor,[2]; [5],2.99
same,logarithmic reduction factor,[2]; [6],3.58
same,logarithmic reduction factor,[2]; [7],3.77
same,logarithmic reduction factor,[2]; [8],4.36
same,logarithmic reduction factor,[2]; [9],>5.58
same,logarithmic reduction factor,[2]; [10],>5.67
same,logarithmic reduction factor,[2]; [11],>5.53
same,logarithmic reduction factor,[2]; [12],>5.59
same,logarithmic reduction factor,[2]; [13],>5.58
same,logarithmic reduction factor,[2]; [14],>5.67
same,logarithmic reduction factor,[2]; [15],>5.53
same,logarithmic reduction factor,[2]; [16],>5.59
same,logarithmic reduction factor,[2]; [17],>5.58
same,logarithmic reduction factor,[2]; [18],>5.67
same,logarithmic reduction factor,[2]; [19],>5.53
same,logarithmic reduction factor,[2]; [20],>5.59
same,logarithmic reduction factor,[2]; [21],>5.58
same,logarithmic reduction factor,[2]; [22],>5.67
same,logarithmic reduction factor,[2]; [23],>5.53
same,logarithmic reduction factor,[3]; [4],<1.31
same,logarithmic reduction factor,[3]; [5],2.31
same,logarithmic reduction factor,[3]; [6],3.01
same,logarithmic reduction factor,[3]; [7],4.85
same,logarithmic reduction factor,[3]; [8],<1.31
same,logarithmic reduction factor,[3]; [9],3.67
same,logarithmic reduction factor,[3]; [10],>5.19
same,logarithmic reduction factor,[3]; [11],>5.55
same,logarithmic reduction factor,[3]; [12],2.05
same,logarithmic reduction factor,[3]; [13],>5.74
same,logarithmic reduction factor,[3]; [14],>5.19
same,logarithmic reduction factor,[3]; [15],>5.55
same,logarithmic reduction factor,[3]; [16],3.25
same,logarithmic reduction factor,[3]; [17],>5.74
same,logarithmic reduction factor,[3]; [18],>5.19
same,logarithmic reduction factor,[3]; [19],>5.55
same,logarithmic reduction factor,[3]; [20],3.78
same,logarithmic reduction factor,[3]; [21],>5.74
same,logarithmic reduction factor,[3]; [22],>5.19
same,logarithmic reduction factor,[3]; [23],>5.55
